Among the data in US7335672B2, “Vanilloid receptor ligands and their use in treatments” (Amgen Inc., priority 2004, dated 2008) are melting point values, retold here.

The structures appear in SMILES notation.

The molecule `CC(=O)Nc1nc2c(Oc3cc(-c4ccc(C(F)(F)F)cc4)nc(-c4cccnc4)n3)cccc2s1` [Example 9] had a melting point of 268 to 270 °C.
The value for `CC(=O)Nc1nc2c(Oc3cc(-c4ccc(C(F)(F)F)cc4)nc(N4CCN(C(=O)OC(C)(C)C)CC4)n3)cccc2s1` [Example 34, tert-Butyl 4-(4-(2-acetamidobenzo[d]thiazol-4-yloxy)-6-(4-(trifluoromethyl)phenyl)pyrimidin-2-yl)piperazine-1-carboxylate] was 211 °C; that for `CC(=O)Nc1nc2c(Oc3cc(-c4ccc(C(F)(F)F)cc4)nc(N4CCCC(O)C4)n3)cccc2s1` (centres unmarked) [Example 39] was 198 °C; that for `CC(=O)Nc1nc2c(Oc3cc(-c4ccc(C(F)(F)F)cc4)nc(N4CCC(C(=O)O)CC4)n3)cccc2s1` [Example 42, 1-{4-{[2-(acetylamino)-1,3-benzothiazol-4-yl]oxy}-6-[4-(trifluoromethyl)phenyl]pyrimidin-2-yl}piperidine-4-carboxylic acid] was 277 to 278 °C.
The value for `CC(=O)Nc1nc2c(Oc3cc(-c4ccc(C(F)(F)F)cc4)nc(NCc4cccnc4)n3)cccc2s1` [Example 53] was 240 °C; that for `CC(=O)Nc1nc2c(Oc3cc(-c4ccc(C(F)(F)F)cc4)nc(NCC4CCCN(C(=O)OC(C)(C)C)C4)n3)cccc2s1` (centres unmarked) [Example 70] was 128 °C.
`CC(=O)Nc1nc2c(Oc3cc(-c4ccc(C(F)(F)F)cc4)nc(NC[C@@H]4CCCN4C(=O)OC(C)(C)C)n3)cccc2s1` [Example 71, tert-butyl (2S)-2-[({4-{[2-(acetylamino)-1,3-benzothiazol-4-yl]oxy}-6-[4-(trifluoromethyl)phenyl]pyrimidin-2-yl}amino)methyl]pyrrolidine-1-carboxylate] displayed a melting point of 132 °C.
To `COCC(C)Nc1nc(Oc2cccc3[nH]c(=O)c(N)nc23)cc(-c2ccc(C(F)(F)F)cc2)n1` (centres unmarked) [Example 109] belongs 241 °C; to `CC(Nc1nc(Oc2cccc3[nH]c(=O)c(N)nc23)cc(-c2ccc(C(F)(F)F)cc2)n1)c1ccccn1` (centres unmarked) [Example 113], 289 °C.
`COC[C@H](C)Nc1nc(Oc2cccc3[nH]c(=O)c(N)nc23)cc(-c2ccc(C(F)(F)F)cc2)n1` [Example 114] gave a melting point of 243 °C.
Regarding `CS(=O)(=O)Nc1cccc(CNc2nc(Oc3cccc4[nH]c(=O)c(N)nc34)cc(-c3ccc(C(F)(F)F)cc3)n2)c1` [Example 116, N-{3-[({4-[(3-amino-2-oxo-1,2-dihydroquinoxalin-5-yl)oxy]-6-[4-(trifluoromethyl)phenyl]pyrimidin-2-yl}amino)methyl]phenyl}methanesulfonamide], the melting point is more than 300 °C.
The molecule `CS(=O)(=O)N1CCN(c2nc(Oc3cccc4[nH]c(=O)c(N)nc34)cc(-c3ccc(C(F)(F)F)cc3)n2)CC1` [Example 117, 3-amino-5-({2-[4-(methylsulfonyl)piperazin-1-yl]-6-[4-(trifluoromethyl)phenyl]pyrimidin-4-yl}oxy)quinoxalin-2(1H)-one] showed a melting point of more than 300 °C.
`CC(C)CN1CCCC[C@H]1CNc1nc(Oc2cccc3[nH]c(=O)c(N)nc23)cc(-c2ccc(C(F)(F)F)cc2)n1` [Example 120, (S)-3-Amino-5-(2-((1-isobutylpiperidin-2-yl)methylamino)-6-(4-(trifluoromethyl)phenyl)pyrimidin-4-yloxy)quinoxalin-2(1H)-one] yielded a melting point of 228 °C.
Molecule `CC(C)CN1CCCC[C@@H]1CNc1nc(Oc2cccc3[nH]c(=O)c(N)nc23)cc(-c2ccc(C(F)(F)F)cc2)n1` [Example 121, (R)-3-Amino-5-(2-((1-isobutylpiperidin-2-yl)methylamino)-6-(4-(trifluoromethyl)phenyl)pyrimidin-4-yloxy)quinoxalin-2(1H)-one] yielded a melting point of 229 °C.
